ChEMBL document CHEMBL3885881, “DrugMatrix”

Species on record: Rattus norvegicus
Assay: DrugMatrix - Regimen: Daily Repeat
Type: toxicity, organism-based, Sprague-Dawley
Parameters: regimen Daily Repeat, gender Male, age 6-8 weeks
Settings: in vivo, sc, route subcutaneous, […]; for ABSOLUTE BASOPHIL / ABSOLUTE EOSINOPHIL / ABSOLUTE LYMPHOCYTE / ABSOLUTE MONOCYTE / ABSOLUTE SEGMENTED NEUTROPHIL / BASOPHIL / EOSINOPHIL / ERYTHROCYTE COUNT / HEMATOCRIT / HEMOGLOBIN / LEUKOCYTE COUNT / LYMPHOCYTE / MEAN CORPUSCULAR HEMOGLOBIN / MEAN CORPUSCULAR HEMOGLOBIN CONCENTRATION / MEAN CORPUSCULAR VOLUME / MONOCYTE / NEUTROPHIL / NUCLEATED RED BLOOD CELLS / PLATELET COUNT: tissue Blood; for ALANINE AMINOTRANSFERASE / ALBUMIN / ALKALINE PHOSPHATASE / ASPARTATE AMINOTRANSFERASE / BLOOD UREA NITROGEN / CARBON DIOXIDE / CHLORIDE / CHOLESTEROL / CREATINE PHOSPHOKINASE / CREATININE / GLUCOSE / LACTATE DEHYDROGENASE / LIPASE / PHOSPHORUS / POTASSIUM / SODIUM / TOTAL BILIRUBIN / TOTAL PROTEIN / URIC ACID: tissue Plasma
[1] = 29 mg/kg, 120 h, dose level Low, time 5 day
[2] = 1200 mg/kg, 72 h, dose level High, time 3 day
[3] = 1200 mg/kg, 120 h, dose level High, time 5 day

Nc1nc2c(ncn2CCC(CO)CO)c(=O)[nH]1 [PENCICLOVIR]
ABSOLUTE BASOPHIL [1]: 0 CELLS/uL
ABSOLUTE EOSINOPHIL [1]: 0 CELLS/uL
ABSOLUTE LYMPHOCYTE [1]: 9185.33 CELLS/uL
ABSOLUTE MONOCYTE [1]: 38 CELLS/uL
ABSOLUTE SEGMENTED NEUTROPHIL [1]: 2710 CELLS/uL
BASOPHIL [1]: 0%
EOSINOPHIL [1]: 0%
ERYTHROCYTE COUNT [1]: 5.6 x10E6/uL
HEMATOCRIT [1]: 35.77%
HEMOGLOBIN [1]: 13.33 G/DL
LEUKOCYTE COUNT [1]: 11.93 x10E3/uL
LYMPHOCYTE [1]: 77%
MEAN CORPUSCULAR HEMOGLOBIN [1]: 23.83 pg
MEAN CORPUSCULAR HEMOGLOBIN CONCENTRATION [1]: 37.27 G/DL
MEAN CORPUSCULAR VOLUME [1]: 63.8 fL
MONOCYTE [1]: 0.33%
NEUTROPHIL [1]: 22.67%
NUCLEATED RED BLOOD CELLS [1]: 0 /100WBC
PLATELET COUNT [1]: 979 x10E3/uL
ALANINE AMINOTRANSFERASE [1]: 64 u/L
ALBUMIN [1]: 3.9 G/DL
ALKALINE PHOSPHATASE [1]: 325.67 u/L
ASPARTATE AMINOTRANSFERASE [1]: 95 u/L
BLOOD UREA NITROGEN [1]: 19 mg/dL
CARBON DIOXIDE [1]: 24.67 mmol/L
CHLORIDE [1]: 105.33 MEQ/L
CHOLESTEROL [1]: 96.67 mg/dL
CREATINE PHOSPHOKINASE [1]: 520.33 u/L
CREATININE [1]: 0.18 mg/dL
GLUCOSE [1]: 168.33 mg/dL
LACTATE DEHYDROGENASE [1]: 141.67 u/L
LIPASE [1]: 8 u/L
PHOSPHORUS [1]: 14.77 mg/dL
POTASSIUM [1]: 6.25 MEQ/L
SODIUM [1]: 144.77 MEQ/L
TOTAL BILIRUBIN [1]: 0.17 mg/dL
TOTAL PROTEIN [1]: 5.7 G/DL
URIC ACID [1]: 1.5 mg/dL
ABSOLUTE BASOPHIL [2]: 0 CELLS/uL
ABSOLUTE EOSINOPHIL [2]: 107.33 CELLS/uL
ABSOLUTE LYMPHOCYTE [2]: 7265 CELLS/uL
ABSOLUTE MONOCYTE [2]: 87 CELLS/uL
ABSOLUTE SEGMENTED NEUTROPHIL [2]: 974 CELLS/uL
BASOPHIL [2]: 0%
EOSINOPHIL [2]: 1.33%
ERYTHROCYTE COUNT [2]: 4.97 x10E6/uL
HEMATOCRIT [2]: 30.73%
HEMOGLOBIN [2]: 11.67 G/DL
LEUKOCYTE COUNT [2]: 8.43 x10E3/uL
LYMPHOCYTE [2]: 86.33%
MEAN CORPUSCULAR HEMOGLOBIN [2]: 23.43 pg
MEAN CORPUSCULAR HEMOGLOBIN CONCENTRATION [2]: 37.97 G/DL
MEAN CORPUSCULAR VOLUME [2]: 61.77 fL
MONOCYTE [2]: 1%
NEUTROPHIL [2]: 11.33%
NUCLEATED RED BLOOD CELLS [2]: 0.33 /100WBC
PLATELET COUNT [2]: 1398.33 x10E3/uL
ALANINE AMINOTRANSFERASE [2]: 36 u/L
ALBUMIN [2]: 3.13 G/DL
ALKALINE PHOSPHATASE [2]: 311.67 u/L
ASPARTATE AMINOTRANSFERASE [2]: 64.33 u/L
BLOOD UREA NITROGEN [2]: 12.33 mg/dL
CARBON DIOXIDE [2]: 28 mmol/L
CHLORIDE [2]: 105.5 MEQ/L
CHOLESTEROL [2]: 58.33 mg/dL
CREATINE PHOSPHOKINASE [2]: 201.33 u/L
CREATININE [2]: 0.19 mg/dL
GLUCOSE [2]: 132.67 mg/dL
LACTATE DEHYDROGENASE [2]: 105.67 u/L
LIPASE [2]: 6.5 u/L
PHOSPHORUS [2]: 10.63 mg/dL
POTASSIUM [2]: 5.8 MEQ/L
SODIUM [2]: 147.5 MEQ/L
TOTAL BILIRUBIN [2]: 0.0667 mg/dL
TOTAL PROTEIN [2]: 5.97 G/DL
URIC ACID [2]: 0.93 mg/dL
ABSOLUTE BASOPHIL [3]: 0 CELLS/uL
ABSOLUTE EOSINOPHIL [3]: 219.33 CELLS/uL
ABSOLUTE LYMPHOCYTE [3]: 14998.67 CELLS/uL
ABSOLUTE MONOCYTE [3]: 280 CELLS/uL
ABSOLUTE SEGMENTED NEUTROPHIL [3]: 5502 CELLS/uL
BASOPHIL [3]: 0%
EOSINOPHIL [3]: 1%
ERYTHROCYTE COUNT [3]: 4.92 x10E6/uL
HEMATOCRIT [3]: 30.6%
HEMOGLOBIN [3]: 11.77 G/DL
LEUKOCYTE COUNT [3]: 21 x10E3/uL
LYMPHOCYTE [3]: 71.33%
MEAN CORPUSCULAR HEMOGLOBIN [3]: 23.97 pg
MEAN CORPUSCULAR HEMOGLOBIN CONCENTRATION [3]: 38.47 G/DL
MEAN CORPUSCULAR VOLUME [3]: 62.2 fL
MONOCYTE [3]: 1.33%
NEUTROPHIL [3]: 26.33%
NUCLEATED RED BLOOD CELLS [3]: 0 /100WBC
PLATELET COUNT [3]: 2260.33 x10E3/uL
ALANINE AMINOTRANSFERASE [3]: 31.33 u/L
ALBUMIN [3]: 2.63 G/DL
ALKALINE PHOSPHATASE [3]: 297.33 u/L
ASPARTATE AMINOTRANSFERASE [3]: 73.67 u/L
BLOOD UREA NITROGEN [3]: 22 mg/dL
CARBON DIOXIDE [3]: 25.33 mmol/L
CHLORIDE [3]: 103 MEQ/L
CHOLESTEROL [3]: 52 mg/dL
CREATINE PHOSPHOKINASE [3]: 232.33 u/L
CREATININE [3]: 0.34 mg/dL
GLUCOSE [3]: 147 mg/dL
LACTATE DEHYDROGENASE [3]: 216.33 u/L
LIPASE [3]: 6.67 u/L
PHOSPHORUS [3]: 12 mg/dL
POTASSIUM [3]: 6.2 MEQ/L
SODIUM [3]: 143.07 MEQ/L
TOTAL BILIRUBIN [3]: 0.1 mg/dL
TOTAL PROTEIN [3]: 5.73 G/DL
URIC ACID [3]: 2.3 mg/dL
